In the supplement of paper PMC12076712:

Legend:
Experiment in all cases: pIC50, kinobeads binding competition
Details in all cases: cell material: Jurkat lysate
MARK4 = molecular target: T1, MARK4 (UniProt Q96L34)
T1 sequence (whole entry): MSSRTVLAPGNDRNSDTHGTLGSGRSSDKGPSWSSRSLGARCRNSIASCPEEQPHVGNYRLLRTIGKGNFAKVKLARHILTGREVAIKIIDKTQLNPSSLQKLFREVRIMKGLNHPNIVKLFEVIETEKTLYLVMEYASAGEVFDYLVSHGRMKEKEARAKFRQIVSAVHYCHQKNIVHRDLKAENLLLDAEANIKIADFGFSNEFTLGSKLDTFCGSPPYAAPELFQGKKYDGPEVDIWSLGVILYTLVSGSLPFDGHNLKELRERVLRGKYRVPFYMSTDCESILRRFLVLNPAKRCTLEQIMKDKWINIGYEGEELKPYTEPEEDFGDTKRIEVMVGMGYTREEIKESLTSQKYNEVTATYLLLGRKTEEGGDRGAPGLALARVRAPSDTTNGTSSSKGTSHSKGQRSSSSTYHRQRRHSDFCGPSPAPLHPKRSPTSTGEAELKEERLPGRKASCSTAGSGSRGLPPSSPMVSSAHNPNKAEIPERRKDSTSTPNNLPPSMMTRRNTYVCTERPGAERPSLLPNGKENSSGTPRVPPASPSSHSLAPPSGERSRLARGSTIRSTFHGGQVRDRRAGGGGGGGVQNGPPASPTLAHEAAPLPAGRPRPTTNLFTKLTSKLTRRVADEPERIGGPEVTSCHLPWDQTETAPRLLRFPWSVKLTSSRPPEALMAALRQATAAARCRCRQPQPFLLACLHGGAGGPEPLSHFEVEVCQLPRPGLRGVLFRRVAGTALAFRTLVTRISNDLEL

NEK1 = molecular target: T2, NEK1 (UniProt Q96PY6)
T2 sequence (whole entry): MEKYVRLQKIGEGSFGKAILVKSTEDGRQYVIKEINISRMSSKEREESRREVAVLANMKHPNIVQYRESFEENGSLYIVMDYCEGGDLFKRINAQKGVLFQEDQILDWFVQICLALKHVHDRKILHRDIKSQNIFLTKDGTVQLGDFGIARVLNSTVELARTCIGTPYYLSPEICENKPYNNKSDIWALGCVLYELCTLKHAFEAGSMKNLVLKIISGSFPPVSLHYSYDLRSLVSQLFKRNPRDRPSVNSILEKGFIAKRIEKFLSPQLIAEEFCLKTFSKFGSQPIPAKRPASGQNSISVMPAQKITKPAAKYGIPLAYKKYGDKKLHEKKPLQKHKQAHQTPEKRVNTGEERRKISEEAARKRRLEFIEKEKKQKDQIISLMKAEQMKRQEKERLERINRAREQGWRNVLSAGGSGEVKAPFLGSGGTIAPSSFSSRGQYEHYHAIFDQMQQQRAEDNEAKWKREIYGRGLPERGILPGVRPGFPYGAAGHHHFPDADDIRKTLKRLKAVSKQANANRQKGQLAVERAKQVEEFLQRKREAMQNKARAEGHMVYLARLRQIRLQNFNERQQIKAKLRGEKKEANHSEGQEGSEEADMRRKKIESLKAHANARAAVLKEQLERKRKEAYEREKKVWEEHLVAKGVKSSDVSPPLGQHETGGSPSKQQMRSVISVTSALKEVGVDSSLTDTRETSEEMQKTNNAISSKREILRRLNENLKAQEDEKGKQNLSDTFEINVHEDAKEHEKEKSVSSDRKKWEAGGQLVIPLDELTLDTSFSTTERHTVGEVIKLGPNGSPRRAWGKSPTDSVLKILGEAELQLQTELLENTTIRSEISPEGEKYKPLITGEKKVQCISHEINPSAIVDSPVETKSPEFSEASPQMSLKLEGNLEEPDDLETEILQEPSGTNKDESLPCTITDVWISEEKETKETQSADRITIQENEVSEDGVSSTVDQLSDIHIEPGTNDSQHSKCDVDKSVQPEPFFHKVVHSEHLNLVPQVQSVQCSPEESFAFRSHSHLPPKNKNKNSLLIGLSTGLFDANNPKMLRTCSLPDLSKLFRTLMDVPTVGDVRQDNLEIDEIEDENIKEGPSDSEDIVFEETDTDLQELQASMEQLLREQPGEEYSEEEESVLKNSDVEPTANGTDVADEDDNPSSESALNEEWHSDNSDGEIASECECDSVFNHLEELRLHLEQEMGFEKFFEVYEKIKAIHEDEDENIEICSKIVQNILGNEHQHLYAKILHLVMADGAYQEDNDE

ZAP70 = molecular target: T3, ZAP70 (UniProt P43403)
T3 sequence (whole entry): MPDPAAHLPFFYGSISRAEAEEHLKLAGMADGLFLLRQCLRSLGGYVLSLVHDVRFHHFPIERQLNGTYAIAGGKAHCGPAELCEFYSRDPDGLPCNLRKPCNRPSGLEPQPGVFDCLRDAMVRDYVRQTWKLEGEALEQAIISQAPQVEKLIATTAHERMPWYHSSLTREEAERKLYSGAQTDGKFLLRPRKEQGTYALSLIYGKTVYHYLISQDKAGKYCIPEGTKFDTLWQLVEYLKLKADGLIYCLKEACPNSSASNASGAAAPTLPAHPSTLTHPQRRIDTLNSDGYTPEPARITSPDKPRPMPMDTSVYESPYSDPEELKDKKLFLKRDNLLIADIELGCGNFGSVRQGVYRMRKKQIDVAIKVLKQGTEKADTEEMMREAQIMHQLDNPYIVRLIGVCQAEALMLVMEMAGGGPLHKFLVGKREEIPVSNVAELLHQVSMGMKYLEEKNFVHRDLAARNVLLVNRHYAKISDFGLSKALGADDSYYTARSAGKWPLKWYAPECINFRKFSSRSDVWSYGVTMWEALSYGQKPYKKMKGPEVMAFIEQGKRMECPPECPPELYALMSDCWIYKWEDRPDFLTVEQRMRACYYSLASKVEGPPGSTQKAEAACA

Measured: pIC50

CCc1cnn2c(NCc3ccc[n+]([O-])c3)cc(N3CCCC[C@H]3CCO)nc12 [dinaciclib]
< 4.52: all assays above
